Key:
[1] = target: T1, Btk (Homo sapiens, UniProt Q06187); assay: Btk in vitro inhibitory activity (Method A, B or C); type: biochemical; set-up: purified from insect cells as a full-length construct containing a N-terminal 6×-His tag; His6 (N); made in house; host or cells: insect cells (baculovirus, Sf21); settings: one of the methods of Example 53a, 53b, 53c
Experimental: Btk kinase activity is determined using a time-resolved fluorescence resonance energy transfer (TR-FRET) methodology. Measurements are performed in a reaction volume of 50 μL using 96-well assay plates. Kinase enzyme, inhibitor, ATP (at the Km for the kinase), and 1 μM peptide substrate (Biotin-AVLESEEELYSSARQ-NH2 (SEQ ID NO: 1)) are incubated in a reaction buffer composed of 20 mM Tris, 50 mM NaCl, MgCl2 (5-25 mM depending on the kinase), MnCl2 (0-10 mM), 1 mM DTT, 0.1 mM EDTA, 0.01% bovine serum albumin, 0.005% Tween-20, and 10% DMSO at pH 7.4 for one hour. The reaction is quenched by the addition of 1.2 equivalents of EDTA (relative to divalent cation) in 25 μL of 1× Lance buffer (Perkin-Elmer). Streptavidin-APC (Perkin-Elmer) and Eu-labeled p-Tyr100 antibody (Perkin-Elmer) in 1× Lance buffer are added in a 25 μL volume to give final concentrations of 100 nM and 2.5 nM, respectively, and the mixture is allowed to incubate for one hour. The TR-FRET signal is measured on a multimode plate reader with an excitation wavelength (λEx) of 330 nm and detection wavelengths (λEm) of 615 and 665 nm. Activity is determined by the ratio of the fluorescence at 665 nm to that at 615 nm. For each compound, enzyme activity is measured at various concentrations of compound. Negative control reactions are performed in the absence of inhibitor in replicates of six, and two no-enzyme controls are used to determine baseline fluorescence levels. Inhibition constants, Ki(app), ware obtained using the program BatchKi (Kuzmic et al. (2000), Anal. Biochem. 286:45-50). IC50s are obtained according to the equation: IC50={Ki(app)/1+[ATP]/Km^ATP)}+[E]total/2;
For all kinases, [ATP]=Km^ATP, [Btk]total=0.5 nM and [Lck]total=6 nM.
Kinase activity is measured in vitro using electrophoretic mobility shift assay. The kinase reactions are assembled in a total volume of 25 μL in 384 well plates. The reactions comprise: BTK enzyme (1 nM, N-terminal His6-tagged, recombinant, full-length, human BTK purified from baculovirus Sf21 insect cell system), inhibitor, ATP (16 μM, the apparent Km for the kinase), fluorescently labeled peptide substrate (1 μM, FAM-GEEPLYWSFPAKKK-NH2 (SEQ ID NO: 2)) in a reaction buffer composed of 100 mM HEPES, pH7.5, 5 mM MgCl2 1 mM DTT, 0.1% bovine serum albumin, 0.01% Triton X-100, and 1% DMSO. The reaction is incubated for one hour and is quenched by the addition of 45 μL of termination buffer (100 mM HEPES, pH7.5, 0.01% Triton X-100, 30 mM EDTA). The terminated reactions are analyzed using 12 channel LabChip® 3000 microfluidic detection instrument (Caliper Life Sciences). The enzymatic phosphorylation of the peptide results in a change in net charge, enabling electrophoretic separation of product from substrate peptide. As substrate and product peptides are separated, two peaks of fluorescence are observed. Change in the relative fluorescence intensity of the substrate and product peaks is the parameter measured, reflecting enzyme activity. In the presence of an inhibitor, the ratio between product and substrate is altered: the signal of the product decreases, while the signal of the substrate increases.
Activity in each sample is determined as the product to sum ratio (PSR):P/(S+P), where P is the peak height of the product peptide and S is the peak height of the substrate peptide. For each compound, enzyme activity is measured at various concentrations (12 concentrations of compound spaced by 3× dilution intervals). Negative control samples (0%−inhibition in the absence of inhibitor) and positive control samples (100%−inhibition, in the presence of 20 mM EDTA) are assembled in replicates of four and are used to calculate %−inhibition values for each inhibitor at each concentration. Percent inhibition (Pinh) is determined using following equation: […]

[2] = tested on: lymphoma cell line DOHH2; assay: Lymphoma cell assay (anti-IgG stimulated CD69, FACS); type: cell-based; settings: DOHH-2; DOHH2 cells stimulated with anti-human IgG F(ab')2 10 μg/mL, 14 to 20 hours; read-out: IC50 (50% decrease in CD69 fluorescence on cell surface)
Experimental: Cells of lymphoma cell line DOHH2 were seeded in 96-well plates in standard growth media (RPMI+10% fetal calf serum). Compounds were added in an 8-point dilution series ranging from 10 to 0.004 μM with DMSO at 0.1% final concentration in all wells. Cells were then stimulated with a F(ab′)2 fragment of anti-human IgG at 10 μg/mL for 14 to 20 hours before staining for FACS analysis. Cells were incubated with fluorescent-labeled anti-CD69 antibody for 30 minutes on ice in FACS buffer and analyzed on the FACSCanto flowcytometry. The IC50, the concentration that results in a 50% decrease in intensity of fluorescence detected on the cell surface, was calculated using the Prizm software to fit the dose-response curve.

[3] = target: EGFR (Homo sapiens, UniProt P00533); assay: Inhibition of a panel of kinases: EGFR; type: biochemical; settings: kinase panel, Table 2
Experimental: (§1) The degree of inhibition of a panel of kinases is determined using assays similar to the kinase assay described in Example 53.

[4] = target: T1, Btk; assay: Inhibition of a panel of kinases: Btk; type: biochemical; settings: kinase panel, Table 2
Experimental: as §1

[5] = target: LCK (Homo sapiens, UniProt P06239); assay: Inhibition of a panel of kinases: LCK; type: biochemical; settings: kinase panel, Table 2
Experimental: as §1

T1 sequence (Q06187 whole entry): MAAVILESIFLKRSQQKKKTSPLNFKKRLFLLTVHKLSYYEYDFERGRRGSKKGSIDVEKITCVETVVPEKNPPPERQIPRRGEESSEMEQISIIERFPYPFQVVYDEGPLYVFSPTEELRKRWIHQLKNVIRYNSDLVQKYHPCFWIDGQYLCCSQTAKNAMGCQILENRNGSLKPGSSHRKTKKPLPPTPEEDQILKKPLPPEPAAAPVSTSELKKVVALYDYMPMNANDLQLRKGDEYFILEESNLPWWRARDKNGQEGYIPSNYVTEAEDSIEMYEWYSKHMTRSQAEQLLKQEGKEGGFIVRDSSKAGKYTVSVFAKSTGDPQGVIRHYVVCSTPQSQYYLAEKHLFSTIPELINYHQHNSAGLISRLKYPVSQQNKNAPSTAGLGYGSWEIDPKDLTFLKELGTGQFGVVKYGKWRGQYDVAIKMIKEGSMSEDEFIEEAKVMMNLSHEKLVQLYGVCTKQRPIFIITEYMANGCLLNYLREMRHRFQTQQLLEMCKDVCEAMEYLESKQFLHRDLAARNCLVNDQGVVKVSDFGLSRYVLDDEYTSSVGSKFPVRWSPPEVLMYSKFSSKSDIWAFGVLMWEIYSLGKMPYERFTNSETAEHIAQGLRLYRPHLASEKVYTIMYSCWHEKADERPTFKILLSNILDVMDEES
Chain of LCK (P06239 whole entry, species assumed): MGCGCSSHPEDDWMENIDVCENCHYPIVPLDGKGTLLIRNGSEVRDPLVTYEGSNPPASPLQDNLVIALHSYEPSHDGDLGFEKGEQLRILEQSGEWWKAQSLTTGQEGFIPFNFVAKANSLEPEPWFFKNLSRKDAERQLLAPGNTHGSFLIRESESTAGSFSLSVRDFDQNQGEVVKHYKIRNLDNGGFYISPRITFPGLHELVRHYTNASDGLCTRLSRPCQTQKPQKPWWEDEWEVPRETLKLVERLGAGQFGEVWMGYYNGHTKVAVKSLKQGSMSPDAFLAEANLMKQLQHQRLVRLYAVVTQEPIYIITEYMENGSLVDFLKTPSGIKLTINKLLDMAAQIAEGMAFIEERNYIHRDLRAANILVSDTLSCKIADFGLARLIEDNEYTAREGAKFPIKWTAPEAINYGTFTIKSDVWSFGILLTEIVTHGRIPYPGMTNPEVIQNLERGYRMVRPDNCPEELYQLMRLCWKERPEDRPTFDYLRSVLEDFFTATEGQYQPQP
Chain of EGFR (P00533 25-1210, species assumed): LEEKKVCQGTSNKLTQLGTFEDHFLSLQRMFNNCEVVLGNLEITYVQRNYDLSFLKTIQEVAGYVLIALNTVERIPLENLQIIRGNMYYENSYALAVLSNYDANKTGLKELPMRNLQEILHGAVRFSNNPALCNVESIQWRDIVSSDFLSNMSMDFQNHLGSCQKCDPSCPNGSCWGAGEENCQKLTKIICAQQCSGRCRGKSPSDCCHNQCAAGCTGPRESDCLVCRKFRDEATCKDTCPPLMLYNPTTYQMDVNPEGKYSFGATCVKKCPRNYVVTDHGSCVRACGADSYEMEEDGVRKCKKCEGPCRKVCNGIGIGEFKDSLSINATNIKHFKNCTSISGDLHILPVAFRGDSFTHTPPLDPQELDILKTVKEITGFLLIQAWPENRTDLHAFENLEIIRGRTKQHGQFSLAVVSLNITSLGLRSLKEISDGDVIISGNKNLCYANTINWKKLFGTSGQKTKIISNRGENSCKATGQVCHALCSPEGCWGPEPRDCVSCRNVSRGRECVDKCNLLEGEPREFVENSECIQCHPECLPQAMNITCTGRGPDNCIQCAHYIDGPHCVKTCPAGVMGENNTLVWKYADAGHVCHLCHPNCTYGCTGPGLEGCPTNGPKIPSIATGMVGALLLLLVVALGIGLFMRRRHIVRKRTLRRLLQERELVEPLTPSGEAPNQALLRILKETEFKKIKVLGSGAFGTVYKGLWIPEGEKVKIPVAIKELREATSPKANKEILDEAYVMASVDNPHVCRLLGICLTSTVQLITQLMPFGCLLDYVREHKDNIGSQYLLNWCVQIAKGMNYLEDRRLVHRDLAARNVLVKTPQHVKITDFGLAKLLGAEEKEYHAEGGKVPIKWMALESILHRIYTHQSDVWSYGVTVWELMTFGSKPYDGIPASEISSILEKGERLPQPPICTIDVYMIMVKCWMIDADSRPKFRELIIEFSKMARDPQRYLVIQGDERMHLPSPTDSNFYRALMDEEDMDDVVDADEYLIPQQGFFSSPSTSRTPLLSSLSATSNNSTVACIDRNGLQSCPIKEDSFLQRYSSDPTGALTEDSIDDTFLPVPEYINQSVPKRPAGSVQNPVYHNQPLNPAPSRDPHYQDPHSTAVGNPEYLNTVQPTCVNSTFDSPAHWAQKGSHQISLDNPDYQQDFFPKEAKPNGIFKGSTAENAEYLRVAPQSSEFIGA

Row | SMILES | IC50 [1] [µM] | IC50 [2] [µM] | IC50 [3] [µM] | IC50 [4] [µM] | IC50 [5] [µM]
1 | C=CC(=O)N1CCC[C@@H](n2nc(-c3ccc(C(=O)Nc4cc(C)ccn4)cc3)c3c(N)ncnc32)C1 [Compound ID 26, (R)-4-(1-(1-acryloylpiperidin-3-yl)-4-amino-1H-pyrazolo[3,4-d]pyrimidin-3-yl)-N-(4-methylpyridin-2-yl)benzamide] | ≤ 0.01 | < 0.005 | – | – | –
2 | C=CC(=O)N1CC[C@@H](n2nc(-c3ccc(C(=O)Nc4cc(C(C)C)ccn4)cc3)c3c(N)ncnc32)C1 [Compound ID 23, (R)-4-(1-(1-acryloylpyrrolidin-3-yl)-4-amino-1H-pyrazolo[3,4-d]pyrimidin-3-yl)-N-(4-isopropylpyridin-2-yl)benzamide] | ≤ 0.01 | < 0.005 | – | – | –
3 | C=CC(=O)N1CC[C@@H](n2nc(-c3ccc(C(=O)Nc4cc(CCC)ccn4)cc3)c3c(N)ncnc32)C1 [Compound ID 30, (R)-4-(1-(1-acryloylpyrrolidin-3-yl)-4-amino-1H-pyrazolo[3,4-d]pyrimidin-3-yl)-N-(4-propylpyridin-2-yl)benzamide] | ≤ 0.01 | < 0.005 | – | – | –
4 | C=CC(=O)N1CCC[C@@H](n2nc(-c3ccc(C(=O)Nc4cc(CCC)ccn4)cc3)c3c(N)ncnc32)C1 [Compound ID 31, (R)-4-(1-(1-acryloylpiperidin-3-yl)-4-amino-1H-pyrazolo[3,4-d]pyrimidin-3-yl)-N-(4-propylpyridin-2-yl)benzamide] | ≤ 0.01 | < 0.005 | – | – | –
5 | C=CC(=O)N1CC[C@@H](n2nc(-c3ccc(C(=O)Nc4cc(C(F)(F)F)ccn4)cc3)c3c(N)ncnc32)C1 [Compound ID 21, (R)-4-(1-(1-acryloylpyrrolidin-3-yl)-4-amino-1H-pyrazolo[3,4-d]pyrimidin-3-yl)-N-(4-(trifluoromethyl)pyridin-2-yl)benzamide] | ≤ 0.01 | < 0.005 | ≤ 0.01 | ≤ 0.01 | 0.01 to 0.1
6 | C=CC(=O)N1CC[C@@H](n2nc(-c3ccc(C(=O)Nc4cc(C)ccn4)cc3)c3c(N)ncnc32)C1 [Compound ID 20, (R)-4-(1-(1-acryloylpyrrolidin-3-yl)-4-amino-1H-pyrazolo[3,4-d]pyrimidin-3-yl)-N-(4-methylpyridin-2-yl)benzamide] | ≤ 0.01 | < 0.005 | ≤ 0.01 | ≤ 0.01 | 0.01 to 0.1
7 | C=CC(=O)N1CCC[C@@H](n2nc(-c3ccc(C(=O)Nc4cc(C(F)(F)F)ccn4)cc3)c3c(N)ncnc32)C1 [Compound ID 27, (R)-4-(1-(1-acryloylpiperidin-3-yl)-4-amino-1H-pyrazolo[3,4-d]pyrimidin-3-yl)-N-(4-(trifluoromethyl)pyridin-2-yl)benzamide] | ≤ 0.01 | < 0.005 | – | – | –

— patent US9533991B2, “Inhibitors of Bruton's tyrosine kinase” (PHARMACYCLICS LLC, priority 2014, dated 2017)
